The text below walks through data of patent US20250129049A1, “1H-PYRAZOLE-3-AMINE DERIVATIVE HAVING BICYCLIC BACKBONE” (Sumitomo Pharma Co., Ltd., priority 2021, published 2025).

The target of data set [1] is hERG current (Homo sapiens (Human), UniProt Q12809). Briefly: cell-based.
Data set [2] deals with ES-2 cells. Briefly: Cell growth suppression experiment (ES-2). The data set is classed as cell-based. To be noted: Homo sapiens, 48 h, cultured 2 days, CellTiter-Glo 3D. The protocol: ES-2 cells were obtained from the American Type Culture Collection (ATCC). These cells were cultured at 37° C. in the presence of 5% CO2 in a McCoy's 5a medium containing 10% fetal bovine serum and 1% penicillin/streptomycin.
500 cells were seeded for each well in a 384-well plate, and the evaluated compound was added to the final DMSO concentration of 0.1% to culture the cells for 2 days. After completion of the culture, the cell viability rate was calculated using CellTiter-Glo (registered trademark) 3D Reagent (Promega, G968B).
A general note: Cellular ATP, detected with luciferase, serves as a proxy for viable cell number.

Data set [3] concerns the target CHK1 kinase (Homo sapiens (Human), UniProt O14757).
Data set [4] in a line: Liposome encapsulation test. The data set is classed as physicochemical. Particulars: concentration upon compound introduction 2 or 3 mg/mL. The protocol: 6.48 g of hydrogenated soybean phosphatidylcholine (COATSOME NC-21E, NOF Corporation), 2.32 g of cholesterol (Sigma) and 2.06 g of distearoylphosphatidylethanolamine-methoxypolyethylene glycol 2000 (SUNBRIGHT DSPE-020CN, NOF Corporation) were dissolved in 560 mL of t-butyl alcohol heated to 65° C. The solution was frozen with dry ice/acetone bath and t-butyl alcohol was then removed by evaporation under reduced pressure to obtain a lipid mixture.
200 mL of 250 mM ammonium sulfate solution was added to the lipid mixture. The resulting mixture was heated to 65° C. and dispersed with a homogenizer (ULTRA-TURRAX, IKA) to obtain a crude liposome dispersion. […] A dialysis cassette (Slide-A-Lyzer G2 Dialysis Cassettes 20K MWCO, Thermo Scientific) was used to replace the outer aqueous phase of the liposome with a 10 mM L-histidine buffer/10% sucrose solution (pH 6.5) to obtain an empty liposome solution. The solution was filtered through a 0.22 μm membrane filter, and a 10 mM L-histidine buffer/10% sucrose solution (pH 6.5) was added to adjust the total lipid concentration to be 75 mM (75 μmol/mL) or 50 mM (50 μmol/mL). The prepared amount was increased or decreased appropriately.
2 to 3 mg of the test compound was weighed out. 1 mL of the empty liposome solution with a total lipid concentration of 50 mM was added. An aqueous 1 mol/L hydrochloric acid or 1 mol/L sodium hydroxide solution was added to adjust the pH to 5.5 to 7. […] Insoluble substances, when present, were removed by centrifugation for 5 minutes at 15,000× g.
The liposome encapsulation ratio was calculated as follows.
100 μL of liposome solution was passed through an ultrafiltration filter (Amicon Ultra, 100K, 0.5 mL, Merck), and centrifuged at 4° C. at 15,000×g for 10 minutes. The concentration of the compound in the filtrate after ultrafiltration was measured by HPLC as the unencapsulated compound concentration.
The liposome solution was diluted with a trifluoroacetic acid/water/methanol mixture (0.1/25/75) and was left standing for 10 minutes or longer at 5° C. The solution was centrifuged for 5 minutes at 15,000× g to remove insoluble substances. The compound concentration in the supernatant was measured by HPLC as the compound concentration in the liposome solution.
The encapsulation ratio and the encapsulation efficiency were calculated by the following equations.
HPLC measurement conditions are the following.

The nature of data set [5]: Pharmacokinetic test, intravenous administration to mice. To be noted: female, BALB/c, mouse, plasma, liposome formulations, 1.0 mg/kg i.v., trapezoidal method, 0 hours to last quantifiable time. The data set is classed as in vivo. As to the method:
Blood was collected over time up to 72 hours after administration from the jugular vein under no anesthesia.

Data set [6] deals with SW948 cells. The data set is described as follows: Cell growth suppression test on various cancer cell lines: SW948. Particulars: Homo sapiens, 72 h; SW948 (colon cancer), cultured 3 days. The data set is classed as cell-based. As to the method:
(§1) HT1080 cells (derived from soft tissue sarcoma) were cultured at 37° C. in the presence of 5% CO2 in an EMEM medium containing 10% fetal bovine serum and 1% penicillin/streptomycin. SJCRH30 cells (derived from soft tissue sarcoma) and BxPC3 cells (derived from pancreatic cancer) were cultured at 37° C. in the presence of 5% C02 in a McCoy's 5a medium containing 10% fetal bovine serum and 1% penicillin/streptomycin. SW948 cells (derived from colon cancer) were cultured at 37° C. in air in a L-15 medium containing 10% fetal bovine serum and 1% penicillin/streptomycin.
(§2) The cells were seeded for each well in a 96-well plate at 70-90% confluency 96 hours after seeding, the evaluated compound was added to the final DMSO concentration of 0.1%, and the cells were cultured for 3 days. After completion of the culture, the cell viability rate was calculated using CellTiter-Glo (registered trademark) 3D Reagent (Promega, G968B).

In data set [7] the test system is HT1080 cells. The data set is described as follows: Cell growth suppression test on various cancer cell lines: HT1080. The data set is classed as cell-based. To be noted: Homo sapiens, HT-1080, 72 h; HT1080 (soft tissue sarcoma), cultured 3 days. The protocol:
as §1, §2

The subject of data set [8] is SJCRH30 cells. Briefly: Cell growth suppression test on various cancer cell lines: SJCRH30. The data set is classed as cell-based. Particulars: 72 h; SJCRH30 (soft tissue sarcoma), cultured 3 days. The protocol: as §1, §2
Data set [9] deals with BxPC3 cells. Briefly: Cell growth suppression test on various cancer cell lines: BxPC3. The data set is classed as cell-based. To be noted: Homo sapiens, BXPC-3, 72 h; BxPC3 (pancreatic cancer), cultured 3 days. The protocol: as §1, §2
Data set [10] addresses hERG (Homo sapiens (Human), UniProt Q12809). Briefly: in vitro. Particulars: CHO cells stably expressing hERG. On the technique in general: The hERG channel carries a current that helps repolarise heart muscle cells.

Sequence of hERG current (Q12809 whole entry): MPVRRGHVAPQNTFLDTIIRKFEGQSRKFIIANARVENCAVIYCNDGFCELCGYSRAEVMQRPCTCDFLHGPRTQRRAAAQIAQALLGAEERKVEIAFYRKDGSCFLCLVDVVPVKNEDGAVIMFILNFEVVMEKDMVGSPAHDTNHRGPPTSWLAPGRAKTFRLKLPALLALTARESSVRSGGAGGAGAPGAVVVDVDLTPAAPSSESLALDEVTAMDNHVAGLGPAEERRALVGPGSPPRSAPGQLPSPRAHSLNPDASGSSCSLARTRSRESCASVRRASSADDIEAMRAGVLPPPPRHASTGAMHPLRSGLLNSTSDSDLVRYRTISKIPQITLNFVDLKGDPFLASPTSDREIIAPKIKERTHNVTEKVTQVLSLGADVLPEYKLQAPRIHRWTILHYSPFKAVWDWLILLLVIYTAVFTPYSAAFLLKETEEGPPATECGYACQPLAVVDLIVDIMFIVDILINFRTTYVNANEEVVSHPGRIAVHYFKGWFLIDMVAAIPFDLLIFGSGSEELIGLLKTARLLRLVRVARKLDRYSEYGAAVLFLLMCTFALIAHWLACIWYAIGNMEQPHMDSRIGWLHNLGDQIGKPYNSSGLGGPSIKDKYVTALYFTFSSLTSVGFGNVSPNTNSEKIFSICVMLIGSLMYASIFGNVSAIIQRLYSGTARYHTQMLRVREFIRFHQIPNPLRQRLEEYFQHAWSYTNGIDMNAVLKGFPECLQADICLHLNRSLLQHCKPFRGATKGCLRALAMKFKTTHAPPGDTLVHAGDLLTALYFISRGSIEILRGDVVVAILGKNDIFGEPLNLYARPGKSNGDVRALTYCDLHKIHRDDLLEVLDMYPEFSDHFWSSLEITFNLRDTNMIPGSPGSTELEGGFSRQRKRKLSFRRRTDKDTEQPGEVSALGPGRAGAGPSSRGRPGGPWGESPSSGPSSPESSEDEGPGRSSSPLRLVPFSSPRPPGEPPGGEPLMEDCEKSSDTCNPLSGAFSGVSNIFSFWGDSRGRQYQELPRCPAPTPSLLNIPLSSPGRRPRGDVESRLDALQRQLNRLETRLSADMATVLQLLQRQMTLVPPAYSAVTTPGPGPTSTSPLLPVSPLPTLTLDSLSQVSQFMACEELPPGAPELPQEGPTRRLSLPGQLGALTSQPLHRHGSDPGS
Sequence of CHK1 kinase (O14757 whole entry): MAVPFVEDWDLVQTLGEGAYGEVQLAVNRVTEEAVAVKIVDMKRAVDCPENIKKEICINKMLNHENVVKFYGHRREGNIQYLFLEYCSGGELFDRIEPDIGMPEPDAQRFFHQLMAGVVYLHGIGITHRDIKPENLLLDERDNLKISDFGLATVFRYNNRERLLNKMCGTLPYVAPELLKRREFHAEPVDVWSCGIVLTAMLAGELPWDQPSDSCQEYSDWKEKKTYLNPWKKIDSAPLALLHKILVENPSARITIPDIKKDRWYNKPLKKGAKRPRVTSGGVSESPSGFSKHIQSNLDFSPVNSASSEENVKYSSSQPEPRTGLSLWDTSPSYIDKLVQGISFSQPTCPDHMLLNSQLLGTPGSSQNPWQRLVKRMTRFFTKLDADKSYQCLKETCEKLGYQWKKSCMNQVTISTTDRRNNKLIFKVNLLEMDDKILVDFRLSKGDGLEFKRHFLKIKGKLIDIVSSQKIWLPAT
Sequence of hERG (Q12809 whole entry): as the sequence (Q12809 whole entry) above

Turning to `N#Cc1cnc(Nc2cc(-c3c(OCCCN)ccc4c3OCC4)[nH]n2)cn1` [Example 3, 5-({5-[6-(3-aminopropoxy)-2,3-dihydro-1-benzofuran-7-yl]-1H-pyrazol-3-yl}amino)pyrazine-2-carbonitrile], the values for the IC50 in data set [1] and in data set [2] were 530 nM and 4 nM, respectively.

Turning to `N#Cc1cnc(Nc2cc(-c3c(OCC4(CN)CC4)ccc4c3OCC4)[nH]n2)cn1` [Example 4, 5-{[5-(6-{[1-(aminomethyl)cyclopropyl]methoxy}-2,3-dihydro-1-benzofuran-7-yl)-1H-pyrazol-3-yl]amino}pyrazine-2-carbonitrile], the half-inhibitory concentration (IC50) in [1] was 300 nM; in [3], 0.27 nM; in [2] it was 9.1 nM.

Consider `N#Cc1cnc(Nc2cc(-c3c(OCCCN)ccc4ccnn34)[nH]n2)cn1` [Example 6, 5-({5-[6-(3-aminopropoxy)pyrazolo[1,5-a]pyridin-7-yl]-1H-pyrazol-3-yl}amino)pyrazine-2-carbonitrile], for which the “Compound concentration in liposome solution” value in [4] was 1880 µg/mL. Moreover, in [4], the Encapsulation ratio is listed as 100.0%. Besides, the figures for the IC50 in [1], in [3] and in [2] were 1300 nM, 0.21 nM and 6.24 nM, respectively. This compound also gave an AUC(0-t) in [5] of 430 µg·h/mL.

Take `N#Cc1cnc(Nc2cc(-c3c(OCCCN)cnc4cccnc34)[nH]n2)cn1` [Example 8, 5-({5-[3-(3-aminopropoxy)-1,5-naphthyridin-4-yl]-1H-pyrazol-3-yl}amino)pyrazine-2-carbonitrile]: the IC50 in data set [6] is 22.3 nM; in [7] it was 9.1 nM; in data set [8], below 3 nM; in data set [9], 7 nM; in [3], 0.5 nM; in data set [2], 7.02 nM.

Take `N#Cc1cnc(Nc2cc(-c3c(OC[C@@H]4CNCCO4)cnc4cccnc34)[nH]n2)cn1` [Example 12]: the IC50 amounted to 1000 nM in [1], 0.38 nM in [3] and 23.2 nM in data set [2].

With `N#Cc1cnc(Nc2cc(-c3c(O[C@@H]4CCC[C@H](N)C4)cnc4c3OCC4)[nH]n2)cn1` [Example 24, 5-{[5-(6-{[(1R,3S)-3-aminocyclohexyl]oxy}-2,3-dihydrofuro[3,2-b]pyridin-7-yl)-1H-pyrazol-3-yl]amino}pyrazine-2-carbonitrile], the IC50 in data set [1] was found to be 4800 nM; in data set [3], 0.31 nM; in data set [2], 12.7 nM.

In the case of `C[C@H](CN)COc1cnc2c(c1-c1cc(Nc3cnc(C#N)cn3)n[nH]1)OCC2` [Example 28, 5-[(5-{6-[(2R)-3-amino-2-methylpropoxy]-2,3-dihydrofuro[3,2-b]pyridin-7-yl}-1H-pyrazol-3-yl)amino]pyrazine-2-carbonitrile], the IC50 was 5 nM in data set [6]; below 3 nM in data set [7]; below 3 nM in data set [8]; below 3 nM in data set [9]; 0.43 nM in [3]; 6.4 nM in [2].

In the case of `N#Cc1cnc(Nc2cc(-c3c(O[C@H]4C[C@H](N)[C@H]5C[C@H]54)cnc4c3OCC4)[nH]n2)cn1` [Example 29, 5-{[5-(6-{[(1R,2S,4S,5S)-4-aminobicyclo[3.1.0]hexan-2-yl]oxy)-2,3-dihydrofuro[3,2-b]pyridin-7-yl)-1H-pyrazol-3-yl]amino}pyrazine-2-carbonitrile], the IC50 in [1] was above 10000 nM; in data set [3], 0.33 nM; in [2], 29.4 nM.

In the case of `C=C(CN)COc1cnc2c(c1-c1cc(Nc3cnc(C#N)cn3)n[nH]1)OCC2` [Example 31, 5-{[5-(6-{[2-(aminomethyl)prop-2-en-1-yl]oxy)-2,3-dihydrofuro[3,2-b]pyridin-7-yl)-1H-pyrazol-3-yl]amino}pyrazine-2-carbonitrile], the IC50 in [3] was determined as 0.31 nM; in [2] it was 13.8 nM.

Regarding `NCCCOc1cnc2c(c1-c1cc(Nc3cnc(Cl)cn3)n[nH]1)OCC2` [Example 32, N-{5-[6-(3-aminopropoxy)-2,3-dihydrofuro[3,2-b]pyridin-7-yl]-1H-pyrazol-3-yl}-5-chloropyrazin-2-amine], the IC50 in data set [3] is 0.33 nM; in [2], 21.5 nM.

As for `COC(=O)c1cnc(Nc2cc(-c3c(OCCCN)cnc4c3OCC4)[nH]n2)cn1` [Example 33, methyl 5-({5-[6-(3-aminopropoxy)-2,3-dihydrofuro[3,2-b]pyridin-7-yl]-1H-pyrazol-3-yl}amino)pyrazine-2-carboxylate], the results for the IC50 in data set [3] and in data set [2] were 9.28 nM and above 1000 nM, respectively.

Consider `N#Cc1cnc(Nc2cc(-c3c(O[C@@H]4CCC[C@H]4CN)cnc4cccnc34)[nH]n2)cn1` [Example 34, 5-{[5-(3-{[(1R,2S)-2-(aminomethyl)cyclopentyl]oxy}-1,5-naphthyridin-4-yl)-1H-pyrazol-3-yl]amino}pyrazine-2-carbonitrile], for which the IC50 came out at 0.75 nM in data set [3] and 5.5 nM in [2].

As for `N#Cc1cnc(Nc2cc(-c3c(OCC4(F)CNC4)cnc4cccnc34)[nH]n2)cn1` [Example 35, 5-[(5-{3-[(3-fluoroazetidin-3-yl)methoxy]-1,5-naphthyridin-4-yl}-1H-pyrazol-3-yl)amino]pyrazine-2-carbonitrile], in [10], the selectivity ratio was at least 800. The IC50 is above 10000 nM in [1], 0.6 nM in [3] and 8 nM in [2].

As for `N#Cc1cnc(Nc2cc(-c3c(O[C@@H]4CCC[C@H](N)C4)cnc4cccnc34)[nH]n2)cn1` [Example 36, 5-{[5-(3-{[(1R,3S)-3-aminocyclohexyl]oxy}-1,5-naphthyridin-4-yl)-1H-pyrazol-3-yl]amino}pyrazine-2-carbonitrile], the values for the IC50 in [3] and in data set [2] were 0.46 nM and 6 nM, respectively.

On to `N#Cc1cnc(Nc2cc(-c3c(O[C@@H]4CC[C@@H](N)C4)cnc4cccnc34)[nH]n2)cn1` [Example 37, 5-{[5-(3-{[(1R,3R)-3-aminocyclopentyl]oxy}-1,5-naphthyridin-4-yl)-1H-pyrazol-3-yl]amino}pyrazine-2-carbonitrile], for which the values for the IC50 in data set [3] and in data set [2] were 0.49 nM and 6.8 nM, respectively.

Turning to `N#Cc1cnc(Nc2cc(-c3c(OCC4(CN)CC(F)(F)C4)cnc4cccnc34)[nH]n2)cn1` [Example 38, 5-{[5-(3-{[1-(aminomethyl)-3,3-difluorocyclobutyl]methoxy)-1,5-naphthyridin-4-yl)-1H-pyrazol-3-yl]amino}pyrazine-2-carbonitrile], the IC50 in data set [3] was found to be 0.93 nM; in [2] it was 8.1 nM.

In the case of `COc1cccc(OCCCN)c1-c1cc(Nc2cnc(C#N)cn2)n[nH]1` [Prexasertib, reference compound], the IC50 was found to be 38.9 nM in data set [6]; 14.9 nM in data set [7]; 4.9 nM in data set [8]; 9.5 nM in data set [9]; 8.55 nM in [2]. Moreover, the “Compound concentration in liposome solution” value in data set [4] came out at 2160 µg/mL.

By IC50 is commonly meant the point on the concentration scale where inhibition reaches its midpoint. A high value points to lower potency. As a reminder, the AUC(0-t) is the area under the concentration-time curve up to a stated or last time point. Low values mean less exposure, high ones more exposure.
